Experimental data as given in PubChem BioAssay (NCI).
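Growth conditions: 96-well plates. Treatment: test compound, 48 hours, 5 concentrations. Analysis: linear interpolation between bracketing concentrations; unreached endpoints set to highest concentration. TGI marks complete inhibition of growth.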

Legend:
Test in all cases: growth of human tumour cells (NCI), 48 h
[1] = system: 786-0 renal
[2] = system: A498 renal
[3] = system: A549 NSCLC
[4] = system: ACHN renal
[5] = system: CAKI-1 renal
[6] = system: CCRF-CEM leukemia
[7] = system: COLO 205 colon
[8] = system: DLD-1 colon
[9] = system: DMS 273 small cell lung
[10] = system: EKVX NSCLC
[11] = system: HCC-2998 colon
[12] = system: HCT-116 colon
[13] = system: HCT-15 colon
[14] = system: HL-60(TB) leukemia
[15] = system: HOP-18 NSCLC
[16] = system: HOP-62 NSCLC
[17] = system: HOP-92 NSCLC
[18] = system: HT29 colon
[19] = system: IGROV1 ovarian
[20] = system: K-562 leukemia
[21] = system: KM12 colon
[22] = system: KM20L2 colon
[23] = system: LOX IMVI melanoma
[24] = system: LXFL 529 NSCLC
[25] = system: M14 melanoma
[26] = system: M19-MEL melanoma
[27] = system: MALME-3M melanoma
[28] = system: MOLT-4 leukemia
[29] = system: NCI-H226 lung
[30] = system: NCI-H23 lung
[31] = system: NCI-H460 lung
[32] = system: NCI-H522 lung
[33] = system: OVCAR-3 ovarian
[34] = system: OVCAR-4 ovarian
[35] = system: OVCAR-5 ovarian
[36] = system: OVCAR-8 ovarian
[37] = system: RPMI-8226 leukemia
[38] = system: RXF 393 renal
[39] = system: RXF-631 renal
[40] = system: SF-268 CNS
[41] = system: SF-295 CNS
[42] = system: SF-539 CNS
[43] = system: SK-MEL-2 melanoma
[44] = system: SK-MEL-28 melanoma
[45] = system: SK-MEL-5 melanoma
[46] = system: SK-OV-3 ovarian
[47] = system: SN12C renal
[48] = system: SNB-19 CNS
[49] = system: SNB-75 CNS
[50] = system: SR leukemia
[51] = system: TK-10 renal
[52] = system: U251 CNS
[53] = system: UACC-257 melanoma
[54] = system: UACC-62 melanoma
[55] = system: UO-31 renal
[56] = system: XF 498 CNS

N#Cc1ccc(Sc2ccccc2)cc1C#N
TGI [1]: 71 µM | TGI [2]: > 100 µM | TGI [3]: > 100 µM | TGI [4]: > 100 µM | TGI [5]: > 100 µM | TGI [6]: 43.3 µM | TGI [7]: > 100 µM | TGI [8]: > 100 µM | TGI [9]: 36.6 µM | TGI [10]: > 100 µM | TGI [11]: > 100 µM | TGI [12]: 40.6 µM | TGI [13]: 30.6 µM | TGI [14]: > 100 µM | TGI [15]: > 100 µM | TGI [16]: > 100 µM | TGI [17]: 74.4 µM | TGI [18]: > 100 µM | TGI [19]: > 100 µM | TGI [20]: > 100 µM | TGI [21]: > 100 µM | TGI [22]: > 100 µM | TGI [23]: 41.7 µM | TGI [24]: > 100 µM | TGI [25]: > 100 µM | TGI [26]: > 100 µM | TGI [27]: > 100 µM | TGI [28]: > 100 µM | TGI [29]: > 100 µM | TGI [30]: > 100 µM | TGI [31]: 46.6 µM | TGI [32]: > 100 µM | TGI [33]: > 100 µM | TGI [34]: > 100 µM | TGI [35]: > 100 µM | TGI [36]: > 100 µM | TGI [37]: 53.9 µM | TGI [38]: 81 µM | TGI [39]: > 100 µM | TGI [40]: 51.6 µM | TGI [41]: > 100 µM | TGI [42]: 47.4 µM | TGI [43]: > 100 µM | TGI [44]: > 100 µM | TGI [45]: > 100 µM | TGI [46]: > 100 µM | TGI [47]: > 100 µM | TGI [48]: > 100 µM | TGI [49]: 52.1 µM | TGI [50]: 39.9 µM | TGI [51]: > 100 µM | TGI [52]: > 100 µM | TGI [53]: > 100 µM | TGI [54]: > 100 µM | TGI [55]: > 100 µM | TGI [56]: 58 µM
